Data published in paper PMC12808645 (Nature Communications, 2025).

Tests used:
NanY177A-Iav [1] = assay: Whole-cell electrophysiology, NanY177A-Iav; format: cell-based, Halyomorpha halys
NanY172F-Iav [2] = format: binding, Halyomorpha halys
NanY177A-Iav [3] = format: binding, Halyomorpha halys
NanY177F-Iav [4] = format: binding, Halyomorpha halys
Nan-Iav = format: cell-based, Halyomorpha halys
NanY172A-Iav [5] = format: binding, Halyomorpha halys
NanY172A-Iav [6] = format: binding, Halyomorpha halys; remark: listed apart in the source
NanY177F-Iav [7] = format: binding, Halyomorpha halys; remark: listed apart in the source
NanY172F-Iav [8] = format: binding, Halyomorpha halys; remark: listed apart in the source
NanY177A-Iav [9] = format: binding, Halyomorpha halys; remark: listed apart in the source

NC(=O)c1cccnc1 [NAM, nicotinamide]
NAM-induced channel activity (NanY177A-Iav [1]): abolishes | increase of Ki for NAM relative to WT (NanY172F-Iav [2]): ~ 10 fold | lowering of NAM binding affinity relative to WT (NanY177A-Iav [3]): > 100 fold | Ki (NanY177A-Iav [3]; read-out: Ki NAM, competition with [3H]-AP, affinities exceeding 10 mM could not be accurately determined): > 10000 µM | weaker NAM affinity than WT (NanY177F-Iav [4]): ~ 10 fold | effect on whole-cell current (Nan-Iav; 1 mM NAM, ±60 mV): robustly stimulated | desensitization and reversibility of evoked currents (Nan-Iav; prolonged or repeated application, washout): non-desensitizing upon prolonged or repeated application and are reversible upon washout | EC50 (Nan-Iav; read-out: apparent EC50): ~100 µM | raising of Ki for NAM relative to WT (NanY172A-Iav [5]): two orders of magnitude

C[C@]1(COC(=O)C2CC2)[C@@H]2C[C@H](O)[C@@]3(C)Oc4cc(-c5cccnc5)oc(=O)c4[C@H](O)[C@@H]3[C@@]2(C)CC[C@@H]1OC(=O)C1CC1 [[^3H]-AP]
increase in [3H]-AP Kd relative to WT (NanY172A-Iav [6]): ~ 100 fold | [3H]-AP Kd compared with WT (NanY177F-Iav [7]): similar | difference in [3H]-AP Kd relative to WT (NanY172F-Iav [8]): 3 fold | greater [3H]-AP Kd than WT (NanY177A-Iav [9]): ~ 200 fold

N.N.N.N.N.N.N.N.N.N.N.N.N.N.[Cl-].[Cl-].[Cl-].[Cl-].[Cl-].[Cl-].[O-2].[O-2].[Ru+3].[Ru+3].[Ru+4] [ruthenium red]
effect on AP-elicited current (Nan-Iav; pore blocker): inhibited

[Ca+2] [Ca^2+]
% inhibition of inward current (Nan-Iav): ~ 50% | % inhibition of outward current (Nan-Iav): ~ 20%
